# Laboratory results taken from US10167262B2, “Herbicidal substituted 3-arylpyrazoles” (FMC CORPORATION, priority 2014, dated 2019).
# Assays:
# Assay type in all cases: in vivo
# [1] = test system: dayflower (Virginia (VA) dayflower, Commelina virginica); assay: Test E pre-/postemergence greenhouse test, plant response rating 0-100; details: scale 0 to 100; for Dayflower, VA plant response rating: Preemergence
# Text: (§1) Seeds of plant species selected from corn (Zea mays), soybean (Glycine max), velvetleaf (Abutilon theophrasti), lambsquarters (Chenopodium album), wild poinsettia (Euphorbia heterophylla), palmer pigweed (Amaranthus palmeri), waterhemp (common waterhemp, Amaranthus rudis), surinam grass (Brachiaria decumbens), large (Lg) crabgrass (Digitaria sanguinalis), Brazilian crabgrass (Digitaria horizontalis), fall panicum (Panicum dichotomiflorum), giant foxtail (Setaria faberii), green foxtail (Setaria viridis), goosegrass (Eleusine indica), johnsongrass (Sorghum halepense), ragweed (common ragweed, Ambrosia elatior), barnyardgrass (Echinochloa crus-galli), sandbur (southern sandbur, Cenchrus echinatus), arrowleaf sida (Sida rhombifolia), Italian ryegrass (Lolium multiflorum), dayflower (Virginia (VA) dayflower, Commelina virginica), field bindweed (Convolvulus arvensis), morningglory (Ipomoea coccinea), nightshade (eastern black nightshade, Solanum ptycanthum), kochia (Kochia scoparia), yellow nutsedge (Cyperus esculentus), smartweed (ladysthumb smartweed, Polygonum persicaria), cocklebur (common cocklebur, Xanthium strumarium), and hairy beggarticks (Bidens pilosa), were planted into a silt loam soil and treated preemergence with test chemicals formulated in a non-phytotoxic solvent mixture which included a surfactant.
# (§2) At the same time, plants from these crop and weed species and also waterhemp_RES1, (ALS & Triazine resistant common waterhemp, Amaranthus rudis), and waterhemp_RES2, (ALS & HPPD resistant common waterhemp, Amaranthus rudis) were planted in pots containing Redi-Earth® planting medium (Scotts Company, 14111 Scottslawn Road, Marysville, Ohio 43041) comprising spaghnum peat moss, vermiculite, wetting agent and starter nutrients were treated with postemergence applications of test chemicals formulated in the same manner. Plants ranged in height from 2 to 18 cm for postemergence treatments (1- to 4-leaf stage).
# (§3) Treated plants and controls were maintained in a greenhouse for 14 to 21 days, after which time all species were compared to controls and visually evaluated. Plant response ratings, summarized in Table E, are based on a scale of 0 to 100 where 0 is no effect and 100 is complete control. A dash (-) response means no test result.
# [2] = test system: field bindweed (Convolvulus arvensis); assay: as above; details: scale 0 to 100; for Field Bindweed plant response rating: Preemergence
# Text: as §1, §2, §3
# [3] = test system: Italian ryegrass (Lolium multiflorum); assay: as above; details: scale 0 to 100; for Ryegrass, Italian plant response rating: Preemergence
# Text: as §1, §2, §3
# [4] = test system: waterhemp_RES2, (ALS & HPPD resistant common waterhemp, Amaranthus rudis); assay: Test E postemergence greenhouse test, plant response rating 0-100; details: scale 0 to 100
# Procedure: as §2, §3
# [5] = test system: barnyardgrass (Echinochloa crus-galli); assay: Test C pre-/postemergence greenhouse test, plant response rating 0-100
# Outline: (§4)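 Visual 0–100 control scores, taken 13 to 15 days post-application in a greenhouse, reflect treatment preemergence (seed in loam soil with sand) or postemergence (2–18 cm plants in peat moss, vermiculite medium). A dash marks no result.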
# [6] = test system: waterhemp (common waterhemp, Amaranthus rudis); assay: as above
# Outline: as §4
# [7] = Postemergence, 250 g ai/ha, scale 0 to 100
structure (smiles),measurement,setting,value
Cn1cc(C(=O)c2cccs2)c(-c2cc(Cl)cc(Cl)c2)n1 [Compound 17],"Plant response rating, Dayflower, VA","[1]; Postemergence, 31 g ai/ha",0
same,"Plant response rating, Dayflower, VA","[1]; Postemergence, 62 g ai/ha",0
same,"Plant response rating, Dayflower, VA","[1]; Postemergence, 125 g ai/ha",0
same,"Plant response rating, Dayflower, VA","[1]; Postemergence, 250 g ai/ha",0
same,"Plant response rating, Dayflower, VA","[1]; Postemergence, 500 g ai/ha",0
same,"Plant response rating, Field Bindweed","[2]; Postemergence, 31 g ai/ha",0
same,"Plant response rating, Field Bindweed","[2]; Postemergence, 62 g ai/ha",10
same,"Plant response rating, Field Bindweed","[2]; Postemergence, 125 g ai/ha",20
same,"Plant response rating, Field Bindweed","[2]; Postemergence, 250 g ai/ha",30
same,"Plant response rating, Field Bindweed","[2]; Postemergence, 500 g ai/ha",30
same,"Plant response rating, Ryegrass, Italian","[3]; Postemergence, 31 g ai/ha",0
same,"Plant response rating, Ryegrass, Italian","[3]; Postemergence, 62 g ai/ha",0
same,"Plant response rating, Ryegrass, Italian","[3]; Postemergence, 125 g ai/ha",0
same,"Plant response rating, Ryegrass, Italian","[3]; Postemergence, 250 g ai/ha",0
same,"Plant response rating, Ryegrass, Italian","[3]; Postemergence, 500 g ai/ha",0
same,"Plant response rating, Waterhemp_RES2",[4]; 31 g ai/ha,60
same,"Plant response rating, Waterhemp_RES2",[4]; 62 g ai/ha,75
same,"Plant response rating, Waterhemp_RES2",[4]; 125 g ai/ha,80
same,"Plant response rating, Waterhemp_RES2",[4]; 250 g ai/ha,85
same,"Plant response rating, Waterhemp_RES2",[4]; 500 g ai/ha,95
CCn1cc(C(=O)c2cccs2)c(-c2cc(Cl)cc(Cl)c2)n1 [Compound 18],"Plant response rating, Dayflower, VA","[1]; Postemergence, 31 g ai/ha",0
same,"Plant response rating, Dayflower, VA","[1]; Postemergence, 62 g ai/ha",0
same,"Plant response rating, Dayflower, VA","[1]; Postemergence, 125 g ai/ha",0
same,"Plant response rating, Dayflower, VA","[1]; Postemergence, 250 g ai/ha",0
same,"Plant response rating, Dayflower, VA","[1]; Postemergence, 500 g ai/ha",5
same,"Plant response rating, Field Bindweed","[2]; Postemergence, 31 g ai/ha",0
same,"Plant response rating, Field Bindweed","[2]; Postemergence, 62 g ai/ha",15
same,"Plant response rating, Field Bindweed","[2]; Postemergence, 125 g ai/ha",25
same,"Plant response rating, Field Bindweed","[2]; Postemergence, 250 g ai/ha",25
same,"Plant response rating, Field Bindweed","[2]; Postemergence, 500 g ai/ha",35
same,"Plant response rating, Ryegrass, Italian","[3]; Postemergence, 31 g ai/ha",0
same,"Plant response rating, Ryegrass, Italian","[3]; Postemergence, 62 g ai/ha",0
same,"Plant response rating, Ryegrass, Italian","[3]; Postemergence, 125 g ai/ha",0
same,"Plant response rating, Ryegrass, Italian","[3]; Postemergence, 250 g ai/ha",0
same,"Plant response rating, Ryegrass, Italian","[3]; Postemergence, 500 g ai/ha",0
same,"Plant response rating, Waterhemp_RES2",[4]; 31 g ai/ha,65
same,"Plant response rating, Waterhemp_RES2",[4]; 62 g ai/ha,80
same,"Plant response rating, Waterhemp_RES2",[4]; 125 g ai/ha,85
same,"Plant response rating, Waterhemp_RES2",[4]; 250 g ai/ha,90
same,"Plant response rating, Waterhemp_RES2",[4]; 500 g ai/ha,95
O=C(c1cncc(F)c1)c1c[nH]nc1-c1cc(Cl)cc(Cl)c1 [Compound 19],"Plant response rating (0 to 100), Barnyardgrass","[5]; Postemergence, 31 g ai/ha",0
same,"Plant response rating (0 to 100), Barnyardgrass","[5]; Postemergence, 62 g ai/ha",0
same,"Plant response rating, Barnyardgrass","[5]; Postemergence, 125 g ai/ha, scale 0 to 100",0
same,"Plant response rating, Barnyardgrass",[5]; [7],0
same,"Plant response rating, Barnyardgrass","[5]; Preemergence, 31 g ai/ha",0
same,"Plant response rating, Barnyardgrass","[5]; Preemergence, 62 g ai/ha",0
same,"Plant response rating, Barnyardgrass","[5]; Preemergence, 125 g ai/ha",0
same,"Plant response rating, Barnyardgrass","[5]; Preemergence, 250 g ai/ha",0
same,"Plant response rating (0 to 100), Waterhemp","[6]; Postemergence, 62 g ai/ha",65
same,"Plant response rating (0 to 100), Waterhemp","[6]; Postemergence, 125 g ai/ha",80
same,"Plant response rating, Waterhemp",[6]; [7],95
same,"Plant response rating, Waterhemp","[6]; Preemergence, 62 g ai/ha",100
same,"Plant response rating, Waterhemp","[6]; Preemergence, 125 g ai/ha",100
same,"Plant response rating, Waterhemp","[6]; Preemergence, 250 g ai/ha",100
"Clc1cc(Cl)cc(-c2n[nH]cc2C(=NN2CCCC2)c2ccccc2)c1 [Compound 30, N-[[3-(3,5-dichlorophenyl)-1H-pyrazol-4-yl]phenylmethylene]-1-pyrrolidinamine]",pest or weed control at 16 g/ha,"[1]; Commelina virginica, post-emergence, Postemergence, 16 g ai/ha",0%
same,pest or weed control at 31 g/ha,"[1]; Commelina virginica, post-emergence, Postemergence, 31 g ai/ha",0%
same,pest or weed control at 62 g/ha,"[1]; Commelina virginica, post-emergence, Postemergence, 62 g ai/ha",0%
same,pest or weed control at 125 g/ha,"[1]; Commelina virginica, post-emergence, Postemergence, 125 g ai/ha",0%
same,pest or weed control at 250 g/ha,"[1]; Commelina virginica, post-emergence, Postemergence, 250 g ai/ha",0%
same,pest or weed control at 16 g/ha,"[2]; Convolvulus arvensis, post-emergence, Postemergence, 16 g ai/ha",0%
same,pest or weed control at 31 g/ha,"[2]; Convolvulus arvensis, post-emergence, Postemergence, 31 g ai/ha",0%
same,pest or weed control at 62 g/ha,"[2]; Convolvulus arvensis, post-emergence, Postemergence, 62 g ai/ha",0%
same,pest or weed control at 125 g/ha,"[2]; Convolvulus arvensis, post-emergence, Postemergence, 125 g ai/ha",0%
same,pest or weed control at 250 g/ha,"[2]; Convolvulus arvensis, post-emergence, Postemergence, 250 g ai/ha",0%
same,pest or weed control at 31 g/ha,"[3]; Lolium multiflorum, post-emergence, Postemergence, 31 g ai/ha",0%
same,pest or weed control at 62 g/ha,"[3]; Lolium multiflorum, post-emergence, Postemergence, 62 g ai/ha",0%
same,pest or weed control at 125 g/ha,"[3]; Lolium multiflorum, post-emergence, Postemergence, 125 g ai/ha",0%
same,pest or weed control at 250 g/ha,"[3]; Lolium multiflorum, post-emergence, Postemergence, 250 g ai/ha",5%
same,"Plant response rating, Barnyardgrass","[5]; Preemergence, 62 g ai/ha",0
same,"Plant response rating, Barnyardgrass","[5]; Preemergence, 125 g ai/ha",0
same,"Plant response rating, Barnyardgrass","[5]; Preemergence, 250 g ai/ha",0
same,"Plant response rating, Barnyardgrass","[5]; Preemergence, 500 g ai/ha",0
same,"Plant response rating, Waterhemp","[6]; Preemergence, 62 g ai/ha",100
same,"Plant response rating, Waterhemp","[6]; Preemergence, 125 g ai/ha",100
same,"Plant response rating, Waterhemp","[6]; Preemergence, 250 g ai/ha",100
same,"Plant response rating, Waterhemp","[6]; Preemergence, 500 g ai/ha",100
"CCn1cc(C(=O)c2ccccc2)c(-c2cc(Cl)cc(Cl)c2)n1 [Compound 31, [3-(3,5-dichlorophenyl)-1-ethyl-1H-pyrazol-4-yl]phenylmethanone]","Dayflower, VA plant response rating",[1]; 62 g ai/ha,0
same,"Dayflower, VA plant response rating",[1]; 125 g ai/ha,0
same,"Dayflower, VA plant response rating",[1]; 250 g ai/ha,0
same,"Dayflower, VA plant response rating",[1]; 500 g ai/ha,0
same,Field Bindweed plant response rating,[2]; 62 g ai/ha,0
same,Field Bindweed plant response rating,[2]; 125 g ai/ha,0
same,Field Bindweed plant response rating,[2]; 250 g ai/ha,0
same,Field Bindweed plant response rating,[2]; 500 g ai/ha,0
same,"Ryegrass, Italian plant response rating",[3]; 62 g ai/ha,0
same,"Ryegrass, Italian plant response rating",[3]; 125 g ai/ha,0
same,"Ryegrass, Italian plant response rating",[3]; 250 g ai/ha,0
same,"Ryegrass, Italian plant response rating",[3]; 500 g ai/ha,0
ON=C(c1ccccc1)c1c[nH]nc1-c1cc(Cl)cc(Cl)c1 [Compound 50],"Plant response rating, Dayflower, VA","[1]; Postemergence, 31 g ai/ha",0
same,"Plant response rating, Dayflower, VA","[1]; Postemergence, 62 g ai/ha",0
same,"Plant response rating, Dayflower, VA","[1]; Postemergence, 125 g ai/ha",0
same,"Plant response rating, Dayflower, VA","[1]; Postemergence, 250 g ai/ha",0
same,"Plant response rating, Dayflower, VA","[1]; Postemergence, 500 g ai/ha",0
same,"Plant response rating, Field Bindweed","[2]; Postemergence, 31 g ai/ha",0
same,"Plant response rating, Field Bindweed","[2]; Postemergence, 62 g ai/ha",0
same,"Plant response rating, Field Bindweed","[2]; Postemergence, 125 g ai/ha",0
same,"Plant response rating, Field Bindweed","[2]; Postemergence, 250 g ai/ha",0
same,"Plant response rating, Field Bindweed","[2]; Postemergence, 500 g ai/ha",5
same,"Plant response rating, Ryegrass, Italian","[3]; Postemergence, 31 g ai/ha",0
same,"Plant response rating, Ryegrass, Italian","[3]; Postemergence, 62 g ai/ha",0
same,"Plant response rating, Ryegrass, Italian","[3]; Postemergence, 125 g ai/ha",0
same,"Plant response rating, Ryegrass, Italian","[3]; Postemergence, 250 g ai/ha",0
same,"Plant response rating, Ryegrass, Italian","[3]; Postemergence, 500 g ai/ha",0
same,"Plant response rating, Waterhemp_RES2",[4]; 31 g ai/ha,75
same,"Plant response rating, Waterhemp_RES2",[4]; 125 g ai/ha,100
same,"Plant response rating, Waterhemp_RES2",[4]; 250 g ai/ha,100
same,"Plant response rating, Waterhemp_RES2",[4]; 500 g ai/ha,100
